# Data from patent US6656676B2, “Silver halide color photographic material” (Konica Corporation, priority 2001, dated 2003).
# Assay: pKa of the oil-soluble basic compound by alkalimetry
# Format: physicochemical
# Settings: ethanol/water solution, alkalimetry at 25° C.
# Procedure: As is commonly known, the pKa value refers to a logarithmic acid dissociation constant (Ka), i.e., pKa=−logKa, which is also called an acid electrolytic dissociation exponent. The pKa value of the oil-soluble basic compound can be determined by the alkalimetry, in the following manner. Thus, 50 mg pf a compound sample is dissolved in 40 ml of ethanol and after adding 10 ml of distilled water thereto, 3 ml of a 0.5 mol/l hydrochloric solution and 12 ml of ethanol are further added. The thus prepared solution is subjected to an alkalimetry at a temperature of 25° C. using an alkaline solution (which is comprised of 2.0 g of sodium hydroxide, 200 ml of distilled water and 800 ml of ethanol) and an automatic titration apparatus (Auto Titrator AUT-301, available from TOA electronics, Ltd.).
row,pKa,SMILES
1,8.7,CC1(C)CC(OC(=O)CCCCCCCCC(=O)OC2CC(C)(C)NC(C)(C)C2)CC(C)(C)N1 [Compd.-3]
2,7.2,CCCCCCCCCCCCN1CCN(CCCCCCCCCCCC)CC1 [OC-6]
3,5,CCCCCCCCCCCCCCOc1ccc(N2CCCCC2)cc1 [Compd.-2]
4,6.2,CCCCCCCCCCCCCCOC(=O)CCN1CCN(CCC(=O)OCCCCCCCCCCCCCC)CC1 [OC-4]
